We go through one molecule from ChEMBL document CHEMBL3864179, “Development of 1H-Pyrazolo[3,4-b]pyridines as Metabotropic Glutamate Receptor 5 Positive Allosteric Modulators” (ACS Med Chem Lett, 2016).

Data set [1] can be described thus: Plasma concentration in C57Bl/6 mouse at 30 mg/kg, ip measured after 60 mins. The class given is ADME, organism-based.
The nature of data set [2]: Ratio of drug level in brain to plasma in C57Bl/6 mouse at 30 mg/kg, ip. The class given is ADME, organism-based. As to conditions: read-out: BPR.

For `N#Cc1c(-c2ccccc2)nc2[nH]nc(-c3ccc(Cl)c(C(F)(F)F)c3)c2c1C1CC1`, in data set [1], the concentration at 1 h was 2800 nM. In addition, the Kp in data set [2] was determined as 0.5.
